Molecules are shown by their SMILES.

This data set can be described thus: Comparison of storage stability of suspension concentrates (CIPAC MT 46.3). The class given is physicochemical. As to the method:
Samples prepared in Examples 4 and 5 were stored at 54° C. for 1 month, 3 months and 6 months. The procedures are followed according to CIPAC MT 46.3. The concentration of spirodiclofen was measured at the end of each storage time by HPLC. The aggregation was measured by observation. The original concentration of spirodiclofen in each formulation was 25%.

`CCC(C)(C)C(=O)OC1=C(c2ccc(Cl)cc2Cl)C(=O)OC12CCCCC2` [Example 1, 3-(2,4-dichlorophenyl)-2-oxo-1-oxaspiro[4.5]dec-3-en-4-yl-2,2-dimethyl butyrate]: the “storage stability / aggregation after prolong storage” value (listed as spirodiclofen in amorphous state) is “high tendency of aggregation”.

Turning to `CCC(C)(C)C(=O)OC1=C(c2ccc(Cl)cc2Cl)C(=O)OC12CCCCC2` [Example 2, 3-(2,4-dichlorophenyl)-2-oxo-1-oxaspiro[4.5]dec-3-en-4-yl-2,2-dimethyl butyrate], the “storage stability / aggregation after prolong storage” value (listed as crystalline modification I of spirodiclofen) is “significant improvement in its stability without aggregation”.
